From ChEMBL document CHEMBL2151039, “Discovery and development of α7 nicotinic acetylcholine receptor modulators” (J Med Chem, 2011)

Assays:
[1] = biological target: Neuronal acetylcholine receptor; alpha3/beta4 (Homo sapiens, UniProt P30926+P32297); assay: Antagonist activity at alpha3beta4 nAChR assessed as amplitude of acetylcholine evoked currents; assay type: functional
[2] = biological target: T1, Neuronal acetylcholine receptor; alpha4/beta2 (Homo sapiens, UniProt P17787+P43681); assay: Antagonist activity at alpha4beta2 nAChR assessed as amplitude of acetylcholine evoked currents; assay type: functional
[3] = biological target: T2, Neuronal acetylcholine receptor subunit alpha-7 (Homo sapiens, UniProt P36544); assay: Antagonist activity at alpha7 nAChR assessed as amplitude of acetylcholine evoked currents; assay type: functional
[4] = biological target: T2, Neuronal acetylcholine receptor subunit alpha-7; assay: Agonist activity at human alpha7 nAChR expressed in GH4C1 cells assessed as potentiation of nicotine-induced calcium signal relative to control; assay type: functional, cell-based; conditions: GH4-C1
[5] = biological target: T2, Neuronal acetylcholine receptor subunit alpha-7; assay: Agonist activity at human alpha7 nAChR expressed in GH4C1 cells assessed as potentiation of nicotine-induced calcium signal; assay type: functional, cell-based, GH4-C1
[6] = biological target: T2, Neuronal acetylcholine receptor subunit alpha-7; assay: Agonist activity at human alpha7 nAChR expressed in Xenopus oocytes assessed as potentiation of nicotine-induced current relative to acetylcholine; assay type: functional, cell-based; conditions: Oocyte
[7] = biological target: T2, Neuronal acetylcholine receptor subunit alpha-7; assay: Partial agonist activity at human alpha7 nAChR expressed in GH4C1 cells relative to acetylcholine; assay type: functional, cell-based, GH4-C1
[8] = biological target: T3, 5-hydroxytryptamine receptor 3A (Homo sapiens) (UniProt P46098); assay: Binding affinity to human 5HT3 receptor at 10 uM by radioligand binding assay
T3 sequence (whole entry): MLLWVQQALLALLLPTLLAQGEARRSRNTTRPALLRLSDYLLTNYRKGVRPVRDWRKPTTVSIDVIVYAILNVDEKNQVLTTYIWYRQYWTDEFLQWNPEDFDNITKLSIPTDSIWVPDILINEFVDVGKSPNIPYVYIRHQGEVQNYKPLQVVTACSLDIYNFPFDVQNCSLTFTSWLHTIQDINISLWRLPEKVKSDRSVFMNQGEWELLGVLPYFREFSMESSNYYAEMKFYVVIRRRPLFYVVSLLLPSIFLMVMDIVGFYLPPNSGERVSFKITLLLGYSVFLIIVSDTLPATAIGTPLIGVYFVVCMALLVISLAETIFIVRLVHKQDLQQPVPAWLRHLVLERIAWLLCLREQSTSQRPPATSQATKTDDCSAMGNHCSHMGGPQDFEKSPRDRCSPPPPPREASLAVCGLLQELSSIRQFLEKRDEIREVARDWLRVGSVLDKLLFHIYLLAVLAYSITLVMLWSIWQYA

[9] = biological target: T2, Neuronal acetylcholine receptor subunit alpha-7; assay: Intrinsic activity at human alpha7 nAChR expressed in Xenopus oocytes relative to acetylcholine; assay type: cell-based; conditions: Oocyte
[10] = biological target: T2, Neuronal acetylcholine receptor subunit alpha-7; assay: Intrinsic activity at human alpha7 nAChR expressed in GH4C1 cells relative to acetylcholine; assay type: cell-based; conditions: GH4-C1
[11] = biological target: T1, Neuronal acetylcholine receptor; alpha4/beta2; assay: Binding affinity to alpha4beta2 nAChR; assay type: protein-complex assay
[12] = biological target: T2, Neuronal acetylcholine receptor subunit alpha-7; assay: Binding affinity to alpha7 nAChR
[13] = biological target: T2, Neuronal acetylcholine receptor subunit alpha-7; assay: Agonist activity at alpha7 nAChR; assay type: functional
[14] = biological target: T1, Neuronal acetylcholine receptor; alpha4/beta2; assay: Binding affinity to human alpha4beta2 nAChR; assay type: protein-complex assay
[15] = biological target: T2, Neuronal acetylcholine receptor subunit alpha-7; assay: Agonist activity at human alpha7 nAChR; assay type: functional
[16] = biological target: T4, 5-hydroxytryptamine receptor 3A (Homo sapiens, UniProt P46098); assay: Binding affinity to human 5HT3A receptor
T4 sequence (P46098 whole entry): T3 sequence (whole entry)

[17] = biological target: T2, Neuronal acetylcholine receptor subunit alpha-7; assay: Agonist activity at human alpha7 nAChR relative to control; assay type: functional
[18] = biological target: Neuronal acetylcholine receptor subunit alpha-7 (Rattus norvegicus) (UniProt Q05941); assay: Agonist activity at rat alpha7 nAchR expressed in Xenopus oocyte relative to acetylcholine; assay type: functional
[19] = biological target: T2, Neuronal acetylcholine receptor subunit alpha-7; assay: Agonist activity at human alpha7 nAChR expressed in Xenopus oocyte; assay type: functional
[20] = biological target: T2, Neuronal acetylcholine receptor subunit alpha-7; assay: Agonist activity at human alpha7 nAChR expressed in Xenopus oocytes relative to acetylcholine; assay type: functional, cell-based; conditions: Oocyte
[21] = biological target: T5, Neuronal acetylcholine receptor subunit alpha-7 (Rattus norvegicus, UniProt Q05941); assay: Agonist activity at rat alpha7 nAchR expressed in Xenopus oocyte; assay type: functional
[22] = biological target: T2, Neuronal acetylcholine receptor subunit alpha-7; assay: Displacement of [3H]A-585539 from alpha7 nAChR human cortex
[23] = biological target: T2, Neuronal acetylcholine receptor subunit alpha-7; assay: Displacement of [3H]-MLA from alpha7 nAChR
[24] = biological target: T5, Neuronal acetylcholine receptor subunit alpha-7; assay: Displacement of [3H]A-585539 from alpha7 nAChR rat cortex
[25] = biological target: T4, 5-hydroxytryptamine receptor 3A; assay: Binding affinity to 5HT3 receptor
[26] = biological target: T2, Neuronal acetylcholine receptor subunit alpha-7; assay: Agonist activity at alpha7 nAChR at 32 uM; assay type: functional
[27] = biological target: T5, Neuronal acetylcholine receptor subunit alpha-7; assay: Agonist activity at rat recombinant alpha7 nAChR; assay type: functional
[28] = biological target: T4, 5-hydroxytryptamine receptor 3A; assay: Binding affinity to human recombinant 5HT3 receptor
[29] = biological target: T4, 5-hydroxytryptamine receptor 3A; assay: Inhibition of 5HT3 receptor
[30] = biological target: Voltage-gated inwardly rectifying potassium channel KCNH2 (Homo sapiens, UniProt Q12809); assay: Inhibition of human ERG
[31] = biological target: T2, Neuronal acetylcholine receptor subunit alpha-7; assay: Binding affinity to human alpha7 nAchR

T2 sequence (P36544 whole entry): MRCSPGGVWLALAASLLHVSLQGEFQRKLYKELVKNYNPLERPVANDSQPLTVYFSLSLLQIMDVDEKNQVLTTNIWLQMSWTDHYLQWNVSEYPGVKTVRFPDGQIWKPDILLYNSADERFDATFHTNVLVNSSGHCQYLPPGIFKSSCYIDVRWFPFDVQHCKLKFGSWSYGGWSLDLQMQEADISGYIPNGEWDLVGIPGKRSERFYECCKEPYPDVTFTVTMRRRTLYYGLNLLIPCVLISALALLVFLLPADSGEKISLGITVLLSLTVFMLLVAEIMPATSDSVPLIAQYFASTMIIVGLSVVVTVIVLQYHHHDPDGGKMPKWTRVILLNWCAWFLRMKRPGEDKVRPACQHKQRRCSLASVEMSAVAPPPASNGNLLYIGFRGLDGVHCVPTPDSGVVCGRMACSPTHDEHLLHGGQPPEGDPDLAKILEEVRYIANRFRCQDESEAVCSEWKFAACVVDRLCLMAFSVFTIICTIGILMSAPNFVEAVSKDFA
T5 sequence (Q05941 whole entry): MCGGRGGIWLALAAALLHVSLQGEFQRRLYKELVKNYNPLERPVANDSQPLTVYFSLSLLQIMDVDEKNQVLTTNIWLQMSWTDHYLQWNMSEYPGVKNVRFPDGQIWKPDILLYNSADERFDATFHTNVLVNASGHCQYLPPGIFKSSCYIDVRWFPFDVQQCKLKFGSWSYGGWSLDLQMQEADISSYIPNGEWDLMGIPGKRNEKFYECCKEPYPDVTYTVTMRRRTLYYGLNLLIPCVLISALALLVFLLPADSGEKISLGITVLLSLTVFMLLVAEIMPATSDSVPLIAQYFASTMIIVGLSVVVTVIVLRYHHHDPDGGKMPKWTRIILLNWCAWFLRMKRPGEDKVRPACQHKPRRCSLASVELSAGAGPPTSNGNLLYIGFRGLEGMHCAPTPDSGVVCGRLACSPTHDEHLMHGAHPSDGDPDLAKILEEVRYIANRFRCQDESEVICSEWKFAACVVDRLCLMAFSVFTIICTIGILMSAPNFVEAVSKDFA
T1 sequence (P17787 whole entry): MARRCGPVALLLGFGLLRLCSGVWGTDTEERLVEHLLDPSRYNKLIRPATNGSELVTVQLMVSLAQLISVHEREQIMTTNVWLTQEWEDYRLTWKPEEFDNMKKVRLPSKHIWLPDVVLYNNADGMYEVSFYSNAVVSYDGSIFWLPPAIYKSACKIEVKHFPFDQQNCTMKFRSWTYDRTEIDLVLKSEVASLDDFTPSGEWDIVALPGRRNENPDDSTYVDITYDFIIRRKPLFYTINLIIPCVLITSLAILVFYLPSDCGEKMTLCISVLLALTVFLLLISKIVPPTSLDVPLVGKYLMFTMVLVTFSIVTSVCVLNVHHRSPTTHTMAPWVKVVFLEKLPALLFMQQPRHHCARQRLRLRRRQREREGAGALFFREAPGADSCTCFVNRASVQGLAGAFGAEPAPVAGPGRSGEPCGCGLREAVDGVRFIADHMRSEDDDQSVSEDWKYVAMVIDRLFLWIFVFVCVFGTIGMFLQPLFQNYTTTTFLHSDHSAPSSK
T1 sequence (P43681 whole entry): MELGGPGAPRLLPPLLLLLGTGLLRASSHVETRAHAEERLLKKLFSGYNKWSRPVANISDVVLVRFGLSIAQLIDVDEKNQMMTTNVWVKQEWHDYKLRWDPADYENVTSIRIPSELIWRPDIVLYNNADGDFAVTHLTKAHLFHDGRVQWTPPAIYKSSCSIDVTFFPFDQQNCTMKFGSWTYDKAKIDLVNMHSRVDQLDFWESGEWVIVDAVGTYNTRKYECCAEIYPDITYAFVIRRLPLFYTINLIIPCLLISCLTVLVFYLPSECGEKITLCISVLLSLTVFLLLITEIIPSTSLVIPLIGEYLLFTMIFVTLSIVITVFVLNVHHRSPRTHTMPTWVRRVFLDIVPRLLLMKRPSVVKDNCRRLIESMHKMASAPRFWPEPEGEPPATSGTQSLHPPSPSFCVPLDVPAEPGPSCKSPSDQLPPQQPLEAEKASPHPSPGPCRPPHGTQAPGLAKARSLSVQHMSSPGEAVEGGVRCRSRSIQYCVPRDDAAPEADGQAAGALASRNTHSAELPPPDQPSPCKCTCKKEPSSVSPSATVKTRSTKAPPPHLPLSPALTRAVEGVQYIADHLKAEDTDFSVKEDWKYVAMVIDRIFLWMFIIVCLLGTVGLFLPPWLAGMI
Chain of Neuronal acetylcholine receptor subunit alpha-7 (Rattus norvegicus) (Q05941 whole entry): as the sequence (Q05941 whole entry) above
Chain of Neuronal acetylcholine receptor; alpha3/beta4 (P30926 whole entry): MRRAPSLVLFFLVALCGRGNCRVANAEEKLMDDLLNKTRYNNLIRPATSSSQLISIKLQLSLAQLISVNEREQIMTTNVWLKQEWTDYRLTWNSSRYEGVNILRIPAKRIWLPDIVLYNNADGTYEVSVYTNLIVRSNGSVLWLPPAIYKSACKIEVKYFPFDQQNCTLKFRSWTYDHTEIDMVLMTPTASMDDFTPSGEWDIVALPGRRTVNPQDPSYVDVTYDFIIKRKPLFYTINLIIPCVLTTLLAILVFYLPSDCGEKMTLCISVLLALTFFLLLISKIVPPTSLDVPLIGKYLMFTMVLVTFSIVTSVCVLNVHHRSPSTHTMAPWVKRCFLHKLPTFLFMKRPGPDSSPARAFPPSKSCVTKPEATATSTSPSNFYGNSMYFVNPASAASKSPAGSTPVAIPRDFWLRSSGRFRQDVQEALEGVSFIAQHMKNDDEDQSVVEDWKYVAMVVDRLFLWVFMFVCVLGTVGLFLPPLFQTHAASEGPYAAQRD
Chain of Neuronal acetylcholine receptor; alpha3/beta4 (P32297 whole entry): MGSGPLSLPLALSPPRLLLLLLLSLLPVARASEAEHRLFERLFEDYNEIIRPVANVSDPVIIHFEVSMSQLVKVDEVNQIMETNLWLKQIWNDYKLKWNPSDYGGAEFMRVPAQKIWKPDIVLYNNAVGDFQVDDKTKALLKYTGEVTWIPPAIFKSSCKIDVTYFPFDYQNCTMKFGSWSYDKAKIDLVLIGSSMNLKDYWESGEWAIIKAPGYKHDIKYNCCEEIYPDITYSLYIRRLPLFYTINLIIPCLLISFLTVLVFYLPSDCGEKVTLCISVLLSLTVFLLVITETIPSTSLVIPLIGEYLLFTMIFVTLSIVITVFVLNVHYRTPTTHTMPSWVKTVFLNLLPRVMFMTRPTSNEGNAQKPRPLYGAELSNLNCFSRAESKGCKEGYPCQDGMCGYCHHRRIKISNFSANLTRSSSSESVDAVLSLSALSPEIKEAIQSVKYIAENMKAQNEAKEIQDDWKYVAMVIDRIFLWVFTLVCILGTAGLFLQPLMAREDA
Chain of Voltage-gated inwardly rectifying potassium channel KCNH2 (Q12809 whole entry): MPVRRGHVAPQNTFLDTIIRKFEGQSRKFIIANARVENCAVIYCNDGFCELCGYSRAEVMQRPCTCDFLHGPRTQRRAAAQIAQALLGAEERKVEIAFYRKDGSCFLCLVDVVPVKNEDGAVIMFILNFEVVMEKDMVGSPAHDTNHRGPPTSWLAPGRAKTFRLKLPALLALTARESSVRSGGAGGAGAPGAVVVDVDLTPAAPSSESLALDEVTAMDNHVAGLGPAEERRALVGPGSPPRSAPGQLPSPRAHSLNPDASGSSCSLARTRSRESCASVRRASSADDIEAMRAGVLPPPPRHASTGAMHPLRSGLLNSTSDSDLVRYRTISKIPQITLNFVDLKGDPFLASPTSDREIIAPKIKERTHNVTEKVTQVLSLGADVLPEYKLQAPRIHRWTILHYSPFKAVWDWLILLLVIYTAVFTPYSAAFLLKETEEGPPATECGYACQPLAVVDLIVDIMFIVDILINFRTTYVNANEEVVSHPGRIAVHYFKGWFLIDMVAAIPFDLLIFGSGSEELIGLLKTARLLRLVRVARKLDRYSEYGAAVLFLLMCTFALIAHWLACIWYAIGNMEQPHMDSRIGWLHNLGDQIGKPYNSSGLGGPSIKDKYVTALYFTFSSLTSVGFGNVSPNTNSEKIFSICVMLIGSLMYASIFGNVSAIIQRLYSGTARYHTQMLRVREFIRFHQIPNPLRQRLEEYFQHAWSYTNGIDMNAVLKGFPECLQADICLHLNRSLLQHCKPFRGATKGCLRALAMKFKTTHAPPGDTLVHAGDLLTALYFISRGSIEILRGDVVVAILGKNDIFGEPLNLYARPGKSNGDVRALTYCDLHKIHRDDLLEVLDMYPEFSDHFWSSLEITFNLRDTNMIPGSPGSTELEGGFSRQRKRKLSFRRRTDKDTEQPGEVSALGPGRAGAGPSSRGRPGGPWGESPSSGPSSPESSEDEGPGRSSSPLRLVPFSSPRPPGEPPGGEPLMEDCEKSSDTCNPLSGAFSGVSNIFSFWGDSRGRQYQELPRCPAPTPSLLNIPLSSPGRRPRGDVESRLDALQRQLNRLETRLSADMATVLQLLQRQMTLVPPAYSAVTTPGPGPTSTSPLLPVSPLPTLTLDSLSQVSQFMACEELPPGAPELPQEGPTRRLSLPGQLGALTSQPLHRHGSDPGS

C=CC[C@@H]1CC[C@@H](CC)[C@@H]2CCCCN12
IC50 [1]: 8800 nM
IC50 [2]: 5200 nM
IC50 [3]: 600 nM

Cn1ccc2cc3c(cc21)CCN3C(=O)Nc1cccnc1
fold change (FC) [4]: 8
EC50 [5]: 1500 nM

Cc1cc(/C(=C\Nc2ccc(Cl)cc2)C(=O)Nc2ccc(Cl)cc2)on1
fold change (FC) [6]: 2.7

O=C(Oc1ccc(Br)cc1)N1CCN2CCC1CC2 [SSR180711]
EC50 [7]: 900 nM
inhibition [8]: < 50%
Intrinsic activity [9]: 51%
Intrinsic activity [10]: 36%

CN1CC2CN(c3ccc(-c4ccc5[nH]ccc5c4)nn3)CC2C1 (stereo not drawn)
Ki [11]: > 20000 nM
Ki [12]: 0.24 nM
EC50 [13]: 320 nM

O=C(NCCCCN1CCCCC1)Nc1ccc(-c2cccnc2)cc1
EC50 [13]: 120 nM

CN1CC2CN(c3ccc(-c4ccccc4)nc3)CC2C1 (stereo not drawn)
Ki [11]: 28000 nM
Ki [12]: 9.6 nM

c1cnc2c(c1)C[C@@]1(CN3CCC1CC3)O2 [AZD0328]
Ki [14]: 140 nM
EC50 [15]: 340 nM
Ki [16]: 12 nM
Emax [17]: 58%

O=C1O[C@]2(CN3CCC2CC3)CN1c1cccs1
Ki [12]: 80 nM

c1cc2cc(-c3ccc(O[C@H]4CN5CCC4CC5)nn3)ccc2[nH]1 [ABT-107]
Emax [18]: 80%
EC50 [19]: 50 nM
Emax [20]: 80%
inhibition [8]: 4%
EC50 [21]: 50 nM
Ki [22]: 0.2 nM
Ki [23]: 7 nM
Ki [24]: 0.2 nM

c1cnc2nc(N3CCN4CCC3CC4)oc2c1
Ki [12]: 30.3 nM
Ki [25]: 579 nM
Activity [26]: 220%

COc1ccccc1-c1cccc2cc(C(=O)N[C@H]3CN4CCC3CC4)oc12
EC50 [19]: 5500 nM
EC50 [27]: 3000 nM
Ki [28]: 60 nM

O=C(N[C@H]1CN2CCC1CC2)c1ccc2occc2c1
Ki [12]: 1.6 nM
Ki [25]: 663 nM
IC50 [29]: 580 nM
EC50 [13]: 43 nM

c1cc(-c2cnc3c(c2)C[C@@]2(CN4CCC2CC4)O3)co1
EC50 [15]: 470 nM
IC50 [30]: 1600 nM
Emax [17]: 40%
Ki [31]: 0.03 nM

Clc1cnc2nc(N3CCN4CCC3CC4)oc2c1
Ki [12]: 1 nM
Ki [25]: 1370 nM
EC50 [13]: 160 nM

c1ccc2oc(N3CCN4CCC3CC4)nc2c1
Ki [12]: 22.5 nM
Ki [25]: 13 nM
Activity [26]: 183%

O=C1NC[C@@]2(CN3CCC2CC3)O1
inhibition [8]: 2.5%
EC50 [21]: 21000 nM

c1ccc2sc(CO[C@@H]3CN4CCC3CC4)cc2c1
Ki [12]: 13 nM

O=C1O[C@]2(CN3CCC2CC3)CN1c1ccc(Cl)s1
Ki [12]: 9 nM
